Experimental data from patent US9387204B2, “Fused bicyclic imidazoles” (BAYER INTELLECTUAL PROPERTY GmbH, priority 2007, dated 2016).

system: A549 cells; assay: Cellular proliferation/cytotoxicity assay (Alamar Blue), A549 cells; conditions: Homo sapiens, A549, 72 h, read-out: Anti-proliferative/Cytotoxic activity (A549 cells)
Description: The anti-proliferative activity of the compounds as described herein, is evaluated using the OvCAR3, HCT116 and A549 cell lines and the Alamar Blue (Resazurin) cell viability assay (O'Brien et al. Eur J Biochem 267, 5421-5426, 2000). Resazurin is reduced to the fluorescent resorufin by cellular dehydrogenase activity, correlating with viable, proliferating cells. Test compounds are dissolved as 10 mM solutions in DMSO and subsequently diluted. Cells like HCT116 or A549 cells were seeded into 96 well flat bottom plates at a density of 10000 cells/well (OvCAR3 cells), 1000 cells/well (HCT116 cells) or 2000 cells/well (A549 cells) in a volume of 200 μl/well. 24 hours after seeding, 1 μl each of the compound dilutions are added into each well of the 96 well plates. Each compound dilution is tested as at least as duplicates. Wells containing untreated control cells were filled with 200 μl DMEM (Dulbecco's Modified Eagle Medium) containing 0.5 vol % v:v DMSO. The cells are then incubated with the substances for 72 h at 37° C. in a humidified atmosphere containing 5 vol % CO2. To determine the viability of the cells, 20 μl of a Resazurin solution (90 mg/l) are added. After 4 h incubation at 37° C., the fluorescence is measured by extinction at ? =544 nm and an emission of ? =590 nm (Wallac Victor2; Perkin Elmer, USA). For the calculation of the cell viability, the emission value from untreated cells is set as 100% viability and the fluorescence intensity of treated cells are set in relation to the values of untreated cells. Viabilities are expressed as % values. The corresponding IC50 values of the compounds for cytotoxic activity are determined from the concentration-effect curves by means of non-linear regression. The analysis of the data is performed using a biostatistical program (Graph Pad Prism, USA).

Structure (SMILES) | IC50 [µM]
Cc1cccn2c(-c3ccccc3)c(-c3ccc(CN4CCC(c5n[nH]c(-c6ccccn6)n5)CC4)cc3)nc12 [Example 8, 8-methyl-3-phenyl-2-(4-{[4-(5-pyridin-2-yl-1,2,4-triazol-3-yl)piperidin-1-yl]methyl}phenyl)imidazo[1,2-a]pyridine] | < 10
Clc1ccc2nc(-c3ccc(CN4CCC(c5nnc(-c6ccccn6)[nH]5)CC4)cc3)c(-c3ccccc3)n2c1 [Example 7, 6-chloro-3-phenyl-2-(4-{[4-(5-pyridin-2-yl-4H-1,2,4-triazol-3-yl)piperidin-1-yl]methyl}phenyl)imidazo[1,2-a]pyridine] | < 10
c1ccc(-c2c(-c3ccc(CN4CCC(c5cc(-c6ccccn6)n[nH]5)CC4)cc3)nc3ncccn23)cc1 [Example 30, 3-phenyl-2-(4-{[4-(3-pyridin-2-yl-pyrazol-5-yl)piperidin-1-yl]methyl}phenyl)imidazo[1,2-a]pyrimidine] | > 10
COc1ccc(-c2c(-c3ccc(CN4CCC(c5n[nH]c(-c6ccccn6)n5)CC4)cc3)nc3ccccn23)cc1 [Example 15, 3-(4-methoxyphenyl)-2-(4-{[4-(5-pyridin-2-yl-1,2,4-triazol-3-yl)piperidin-1-yl]methyl}phenyl)imidazo[1,2-a]pyridine] | < 10
Cc1cccc(-c2nnc(C3CCN(Cc4ccc(-c5nc6ccc(C)nn6c5-c5ccccc5)cc4)CC3)[nH]2)n1 [Example 69, 6-methyl-2-[4-({4-[5-(6-methylpyridin-2-yl)-4H-1,2,4-triazol-3-yl]piperidin-1-yl}methyl)phenyl]-3-phenylimidazo[1,2-b]pyridazine] | < 10
Cc1ccc2nc(-c3ccc(CN4CCC(c5nnc(-c6ccccc6)[nH]5)CC4)cc3)c(-c3ccccc3)n2n1 [Example 119, 6-methyl-3-phenyl-2-(4-{[4-(5-phenyl-4H-1,2,4-triazol-3-yl)piperidin-1-yl]methyl}phenyl)imidazo[1,2-b]pyridazine] | < 10
Clc1ccn2c(-c3ccccc3)c(-c3ccc(CN4CCC(c5nnc(-c6cccs6)[nH]5)CC4)cc3)nc2c1 [Example 103, 7-chloro-3-phenyl-2-[4-({4-[5-(2-thienyl)-4H-1,2,4-triazol-3-yl]piperidin-1-yl}methyl)phenyl]imidazo[1,2-a]pyridine] | < 10
c1ccc(-c2nc(C3CCN(Cc4ccc(-c5nc6ncccn6c5-c5cccs5)cc4)CC3)n[nH]2)nc1 [Example 35, 2-(4-{[4-(5-pyridin-2-yl-1,2,4-triazol-3-yl)piperidin-1-yl]methyl}phenyl)-3-(2-thienyl)imidazo[1,2-a]pyrimidine] | > 10

same assay, conditions: read-out: Anti-proliferative/Cytotoxic activity (A549 cells); A549 cells, 72 h, Alamar Blue (Resazurin)

Structure (SMILES) | IC50 [µM]
c1ccc(-c2c(-c3ccc(CN4CCC(c5cc(-c6ccccn6)n[nH]5)CC4)cc3)nc3ccccn23)cc1 [Example 111, ′3-phenyl-2-(4-{[4-(3-pyridin-2-yl-1H-pyrazol-5-yl)piperidin-1-yl]methyl}phenyl)imidazo[1,2-a]pyridine] | < 10
N#Cc1cccn2c(-c3ccccc3)c(-c3ccc(CN4CCC(c5nnc(-c6nccs6)[nH]5)CC4)cc3)nc12 [Example 86, ′3-phenyl-2-[4-({4-[5-(1,3-thiazol-2-yl)-4H-1,2,4-triazol-3-yl]piperidin-1-yl}methyl)phenyl]imidazo[1,2-a]pyridine-8-carbonitrile] | > 10
Clc1ccc(-c2nnc(C3CCN(Cc4ccc(-c5nc6ncccn6c5-c5ccccc5)cc4)CC3)[nH]2)nc1 [Example 76, ′2-[4-({4-[5-(5-chloropyridin-2-yl)-4H-1,2,4-triazol-3-yl]piperidin-1-yl}methyl)phenyl]-3-phenylimidazo[1,2-a]pyrimidine] | < 10
c1ccc(-c2c(-c3ccc(CN4CCC(c5nnc(-c6ncccn6)[nH]5)CC4)cc3)nc3ccccn23)cc1 [Example 80, ′3-phenyl-2-(4-{[4-(5-pyrimidin-2-yl-4H-1,2,4-triazol-3-yl)piperidin-1-yl]methyl}phenyl)imidazo[1,2-a]pyridine] | > 10
